Values of other authors in US20130344180A1, “WEIGHT LOSS AND SATIATION COMPOSITION” (YL HOLDINGS, INC., priority 2012, published 2013).
Each block holds one compound with its values, some of them ahead of it.

Tests used:
[1] = test system: E1, E2, and E3 isozymes of retinaldehyde dehydrogenase (Raldh)
[2] = mice and rats
[3] = mice and rats; remark: listed apart in the source
prostate gland tumors = conditions: various strains of rats
cellular metabolism = conditions: by increasing cellular metabolism
[4] = test system: adipocyte differentiation
[5] = in vivo
PPARγ = PPARγ (Homo sapiens, UniProt P37231)
[6] = test system: fat cells in white adipose tissue; conditions: by increasing the expression of thermogenin

Chain of PPARγ (P37231 whole entry, species assumed): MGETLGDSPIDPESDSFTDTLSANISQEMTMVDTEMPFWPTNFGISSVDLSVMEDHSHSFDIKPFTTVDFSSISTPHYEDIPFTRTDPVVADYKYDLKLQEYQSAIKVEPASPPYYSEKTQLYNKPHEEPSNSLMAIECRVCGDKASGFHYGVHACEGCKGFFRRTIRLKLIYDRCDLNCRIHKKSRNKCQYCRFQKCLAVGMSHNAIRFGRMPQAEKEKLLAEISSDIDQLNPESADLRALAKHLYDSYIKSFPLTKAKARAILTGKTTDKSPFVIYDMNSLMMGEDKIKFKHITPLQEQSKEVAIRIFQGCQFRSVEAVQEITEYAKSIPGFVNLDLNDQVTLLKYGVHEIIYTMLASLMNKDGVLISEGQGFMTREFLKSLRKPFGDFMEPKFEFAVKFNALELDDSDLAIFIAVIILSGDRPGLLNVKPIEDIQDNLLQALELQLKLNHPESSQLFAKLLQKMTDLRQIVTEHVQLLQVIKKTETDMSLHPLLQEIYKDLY

inhibition of E1, E2, and E3 isozymes of retinaldehyde dehydrogenase (Raldh) [1]: competitively inhibits
Compound: CC(C)=CCCC(C)=CC=O [Citral, 3,7-dimethyl-2,6-octadienal]
toxicity [2]: non-toxic
carcinogenic potential [3]: does not possess carcinogenic potential
effect against prostate gland tumors (prostate gland tumors): effective
thermogenic response (cellular metabolism): provide thermogenic response

ligand of PPARγ (PPARγ): acts as a ligand
Compound: CCCC\C=C/C=C/C=C\CCCCCCCC(=O)O [punicic acid]
adipocyte differentiation [4]: suppression
high-fat-diet induced obesity and insulin resistance [5]: suppression

Compound: Fucoxanthin
fat burning within fat cells [6]: promote fat burning
